The source of these data is patent US20090186915A1, “Compositions and methods for treatment of glioblastoma, gliosarcoma, NSCLC, and head and neck cancer” (Unibioscreen S. A., priority 2006, published 2009).

Assay [1] deals with PC-3. As to the kind of experiment: Cell cycle kinetics by flow cytometry (PI), PC-3. Format: cell-based, human. The method, then:
The cell cycle kinetics of prostate cancer cells left untreated or incubated with UNBS5162 were determined by flow cytometry analysis of propidium iodide (PI) nuclear staining, using previously detailed methodology. Each sample was evaluated in triplicate. Flow cytometry was undertaken using an Epics XL.MCL flow cytometer and the FACScan/CellQuest software system (Becton Dickinson, Miami, Fla.).
(In general: Flow cytometry measures light scatter and fluorescence of single cells or particles in a stream.)

Assay [2] has as its system OE21 xenograft. As to the kind of experiment: s.c. metastatic OE21 xenograft nude mice model. The class given is in vivo. The conditions noted are these: UNBS5162 10 mg/kg i.v. with cisplatin 5 mg/kg i.p. How it is done: To enable the achievement of pertinent in vivo studies, a highly metastatic s.c. model was developed by grafting OE21 cells subcutaneously into nude mice. […] In line with this, an experiment combining cisplatin to UNBS5162 was performed.
The treatment protocol included following conditions: • UNBS5162: N-{2-[2-(dimethylamino)ethyl]-1,3-dioxo-2,3-dihydro-1H-benzo[de]isoquinolin-5-yl}urea
Dose (mg/kg): 10 mg/kg (1.35 eq lactic acid) Dose volume: 200 μL/mouse Schedule: 3 injection(s) per week; 5 weeks (3i×5w)
Dose (mg/kg): 5 mg/kg (saline) Dose volume: 200 μL/mouse Schedule: 1 injection per week; 5 weeks (1×5)
Cisplatine (1×5)×5 mg/kg i.p.=>group 1 UNBS5162 (3×5)×10 mg/kg i.v.=>group 3 Cisplatine (1×3)×5 mg/kg i.p.=>1 w without treatment=>UNBS5162 (3×5)× […] i.v.=>group 4

Assay [3] deals with PC-3. As to the kind of experiment: Autophagy: acidic vesicular organelles, acridine orange flow cytometry, PC-3. Format: cell-based, human. To be noted: red fluorescence, up to 10 μM. The method, then: The cytoplasm and nucleus fluoresce green in acridine orange-stained cells, and the acidic compartments fluoresce red. The intensity of the red fluorescence is proportional to the degree of acidity and the volume of acidic vesicular organelles, including autophagic vacuoles. To quantify the development of acidic vesicular organelles, the cells were stained with acridine orange for 15 minutes and removed from the plate with trypsinization. Cells were then analyzed by flow cytometry. Each sample was evaluated in triplicate.

Assay [4] deals with Mk-CFC. As to the kind of experiment: HALO hematotoxicity assay, human Mk-CFC. To be noted: 7 days culture, iATP. The class given is cell-based. The method, then: Investigation of the hematotoxic potential of UNBS5162 was undertaken by HemoGenix (Colorado Springs, Colo.). The effects of UNBS5162 on stem and progenitor cell populations from murine and human bone marrow were assessed using HALO (Hematopoietic/Hematotoxicity Assay through Luminescence Output) technology. Stem and hematopoietic progenitor cell populations were isolated from mouse and human bone marrow samples, plated at a concentration of 1.0×10^4 cells/well and cultured for 5 and 7 days, respectively, in the presence of growth factors and increasing concentrations of UNBS5162 ranging from 0.5 nM to 50 μM. The proliferative or growth potential of cell populations was determined from intracellular ATP (iATP) concentrations and a luciferin/luciferase bioluminescence signal detection system. All samples were assayed in eight replicates. The results are presented as estimated inhibitory concentration (IC) values.

Assay [5] relates to PC3. The assay can be described thus: MTT overall cell growth, PC3 cells. The class given is cell-based. The conditions noted are these: Homo sapiens, 72 h; PC-3; 3 days of culturing; mean of six determinations; read-out: IC50 (μM) In Vitro Growth Inhibition. How it is done: Tests were performed in order to rapidly, i.e. within 5 days, measure the effect of the compound of example 2 on the overall cell growth. The test measures the number of metabolically active living cells that are able to transform the yellow product 3-(4,5-dimethylthiazol-2-yl)-2,5-diphenyl tetrazolium bromide (herein referred as MTT) into the blue product formazan dye by mitochondrial reduction. The amount of formazan obtained at the end of the experiment, measured by means of a spectrophotometer, is directly proportional to the number of living cells. Optical density determination thus enables a quantitative measurement of the effect of the investigated compounds as compared to the control condition (untreated cells) and/or to other reference compounds. […]
After 72 hours of incubation at 37° C. with (experimental conditions) or without (control condition) the compound to be tested, the medium was replaced by 100 μl MTT dissolved in RPMI (1640 without phenol red) at a concentration of 1 mg/ml. […] The micro-wells were shaken for 5 minutes and read on a spectrophotometer at wavelengths of 570 nm (maximum formazan absorbance) and 630 nm (back-ground noise).
For each experimental condition, the mean optical density was calculated, as well as the percentage of remaining living cells in comparison with the control. […]

Assay [6] concerns ets homologous factor (EHF). As to the kind of experiment: EHF mRNA by quantitative RT-PCR, DU-145. Format: cell-based, human. How it is done: Reverse transcription reactions were carried out in a thermal cycler (Thermocycler; Westburg, Leusden, The Netherlands). The purification of the cDNAs produced was undertaken using the High Pure PCR Product Purification Kit (Roche Diagnostics, Mannheim, Germany) in accordance with the manufacturer's instructions. Quantitative PCR reactions were performed with 50 ng of purified cDNA in a LightCycler thermocycler instrument (Roche Diagnostics) using LCFastart DNA Master SYBR Green 1 (Roche Diagnostics). After amplification, data analysis was carried out by means of the “Fit points” algorithm of the LightCycler quantification software. A standard curve enabled cDNA quantification of samples to be effected. The primers used were provided by Invitrogen and selected using the HYBSIMULATOR software (Advanced Gene Computing Technology, Irvine, Calif.). The primers used were as follows: ets homologous factor (EHF): forward: 5′-[…]-3′; reverse: 5′-CGAACTCTTGGAAAGGGA-3′; E2F1: forward: 5′-[…]-3′; reverse: 5′-GGATGTGGTTCTTGGACTT-3′.

As for `CN(C)CCN1C(=O)c2cccc3cc(NC(N)=O)cc(c23)C1=O` [UNBS5162, N-{2-[2-(dimethylamino)ethyl]-1,3-dioxo-2,3-dihydro-1H-benzo[de]isoquinolin-5-yl}urea], the cell cycle kinetics entry was “did not significantly (P>0.05) modify” in assay [1] (1 μM) and “did not notably modify PC-3 cell cycle kinetics” in assay [1] (chronic 1 μM for 5 days (5×1) or 3 weeks (3w1)). For the same compound, the “cell cycle kinetics, G2 block” value in assay [1] (10 μM for 72 hours) is given as “markedly blocked PC-3 cells in their G2 cell cycle phase”. The “anti-tumor effect in combination with cisplatin (tumor size)” value in assay [2] was “enhanced the activity of cisplatin”. The “pro-autophagic effects (acidic vesicular organelles)” value in assay [3] was “had a proautophagic effect”; in assay [3] (listed as example 2), “pro-autophagic effects”. Moreover, the figures for the IC50 in assay [4] (168 h) and in assay [5] were 4.05 µM and 17.3 µM, respectively. Also, the IC90 (usually the point of the concentration-response curve where the effect stands at 90%) in assay [4] (168 h) was 20.1 µM. In addition, the IC75 (commonly the point of the concentration-response curve where the effect stands at 75%) in assay [4] was 9.22 µM. Also, the “EHF mRNA expression” value in assay [6] (1 μM) is reported as “markedly decreased EHF mRNA expression in a transient manner”. The “EHF mRNA levels” value in assay [6] (10 μM, 72 hours after treatment) is listed as “marked sustained decrease in EHF mRNA levels”.
